In US9487511B2, “Cyclopropanamine compound and use thereof” (Takeda Pharmaceutical Company Limited, priority 2014, dated 2016):
Structures can show the parent of a compound that is named as a salt.

Legend:
Type in all cases: biochemical
MAO-A enzyme = MAO-A enzyme (Homo sapiens (Human), UniProt P21397); assay: Measurement of MAO-A inhibitory activity (MAO-Glo Assay)
Method: The MAO-A inhibitory activity evaluation described below followed the protocol of MAO-Glo (registered trademark) Assay of Promega KK.
A test compound dissolved in DMSO was added to a reaction solution (100 mM HEPES (pH 7.5), 5% glycerol) containing MAO-A enzyme (Sigma-Aldrich Co. LLC.), and the mixture was reacted at room temperature for 15 min. MAO substrate (Promega KK) was added to start the reaction. After reaction at room temperature for 60 min, Luciferine detection reagent (Promega KK) was added to terminate the reaction. After reaction at room temperature for 20 min with stirring, the luminescence was measured by Envision (PerkinElmer). The MAO-A inhibitory rate (%) of the test compound was calculated by the following formula. inhibitory rate (%)=(1−(test compound count−blank)÷(control−blank))×100
The count of the MAO-A enzyme reaction mixture under compound non-addition conditions is indicated as control, and the count under compound non-addition and MAO-A enzyme non-addition conditions is indicated as blank.

MAO-B enzyme = MAO-B enzyme (Homo sapiens (Human), UniProt P27338); assay: Measurement of MAO-B inhibitory activity (MAO-Glo Assay)
Method: The MAO-B inhibitory activity evaluation described below followed the protocol of MAO-Glo (registered trademark) Assay of Promega KK.
A test compound dissolved in DMSO was added to a reaction solution (100 mM HEPES (pH 7.5), 5% glycerol, 10% DMSO) containing MAO-B enzyme (Sigma-Aldrich Co. LLC.), and the mixture was reacted at room temperature for 15 min. MAO substrate (Promega KK) was added to start the reaction. After reaction at room temperature for 60 min, Luciferine detection reagent (Promega KK) (50 μL) was added to terminate the reaction. After reaction at room temperature for 20 min with stirring, the luminescence was measured by Envision (PerkinElmer). The MAO-B inhibitory rate (%) of the test compound was calculated by the following formula. inhibitory rate (%)=(1−(test compound count−blank)÷(control−blank))×100
The count of the MAO-B enzyme reaction mixture under compound non-addition conditions is indicated as control, and the count under compound non-addition and MAO-B enzyme non-addition conditions is indicated as blank.

human LSD1(172-833) = human LSD1(172-833) (Homo sapiens (Human), UniProt O60341); assay: Measurement of LSD1 inhibitory activity (time-resolved fluorescence, biotin-histone H3 mono methylated K4 peptide); conditions: 60 min preincubation with enzyme at room temperature;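 note: after the compound–enzyme step, substrate reaction 5 min at room temperature in Tris-HCl pH 8.0 with BSA and DTT, halted by 2-PCPA, detected with europium anti-histone H3 antibody plus Streptavidin-XL665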
Method: A test compound dissolved in DMSO was added by to a reaction solution (50 mM Tris-HCl (pH 8.0), 0.1% BSA, 1 mM DTT) containing LSD1 enzyme, and the mixture was reacted at room temperature for 60 min. […] After reaction at room temperature for 5 min, 2-PCPA solution was added to terminate the reaction. A detection solution (800 mM potassium fluoride, 0.1% BSA) containing europium-labeled anti-histone H3 antibody (Wako Pure Chemical Industries, Ltd.) and Streptavidin-XL665 (Cisbio) was further added, and the mixture was left standing for 60 min. […] The LSD1 inhibitory rate (%) of the test compound was calculated by the following formula. inhibitory rate (%)=(1−(test compound count−blank)÷(control−blank))×100
The count of the LSD1 enzyme reaction mixture under compound non-addition conditions is indicated as control, and the count under compound non-addition and LSD1 enzyme non-addition conditions is indicated as blank. A concentration necessary for achieving 50% inhibitory rate was taken as ICH value.

Sequence of MAO-B enzyme (P27338 whole entry): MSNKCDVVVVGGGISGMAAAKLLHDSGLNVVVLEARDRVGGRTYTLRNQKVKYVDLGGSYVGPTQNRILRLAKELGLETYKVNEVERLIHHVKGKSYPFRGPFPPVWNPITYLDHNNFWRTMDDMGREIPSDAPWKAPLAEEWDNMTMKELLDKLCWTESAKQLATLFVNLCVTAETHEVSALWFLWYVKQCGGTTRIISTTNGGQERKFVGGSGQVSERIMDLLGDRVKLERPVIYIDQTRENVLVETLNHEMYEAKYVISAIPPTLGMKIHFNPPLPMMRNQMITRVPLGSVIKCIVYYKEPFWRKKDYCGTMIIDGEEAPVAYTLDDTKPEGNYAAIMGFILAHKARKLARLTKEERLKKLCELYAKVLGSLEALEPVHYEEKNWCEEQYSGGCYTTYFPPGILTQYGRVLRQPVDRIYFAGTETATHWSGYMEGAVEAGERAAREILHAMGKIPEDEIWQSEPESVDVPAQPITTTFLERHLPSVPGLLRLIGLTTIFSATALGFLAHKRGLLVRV
Sequence of MAO-A enzyme (P21397 whole entry): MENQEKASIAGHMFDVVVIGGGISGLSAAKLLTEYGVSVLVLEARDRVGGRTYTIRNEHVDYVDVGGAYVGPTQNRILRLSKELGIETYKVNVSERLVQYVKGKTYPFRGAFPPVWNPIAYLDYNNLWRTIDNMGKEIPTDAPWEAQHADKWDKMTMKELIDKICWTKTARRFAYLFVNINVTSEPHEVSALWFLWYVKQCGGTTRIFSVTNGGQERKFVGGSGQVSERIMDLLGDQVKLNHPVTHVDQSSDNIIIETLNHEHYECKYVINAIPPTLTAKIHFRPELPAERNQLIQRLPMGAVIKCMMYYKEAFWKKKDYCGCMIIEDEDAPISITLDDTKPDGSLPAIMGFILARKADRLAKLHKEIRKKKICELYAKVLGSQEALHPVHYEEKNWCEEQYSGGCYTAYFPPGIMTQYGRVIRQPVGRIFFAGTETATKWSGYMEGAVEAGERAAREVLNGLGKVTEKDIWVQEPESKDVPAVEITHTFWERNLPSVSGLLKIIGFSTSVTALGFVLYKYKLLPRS

SMILES | IC50 (MAO-A enzyme) [µM] | IC50 (MAO-B enzyme) [µM] | IC50 (human LSD1(172-833)) [nM]
O=C(NC1CCC(F)(F)CC1)c1csc([C@@H]2C[C@H]2NCC2CCOCC2)c1 [Example 51, N-(4,4-difluorocyclohexyl)-5-((1R,2R)-2-((tetrahydro-2H-pyran-4-ylmethyl)amino)cyclopropyl)thiophene-3-carboxamide hydrochloride] | > 100 | > 100 | < 100
O=C(NC1CCN(CC(F)(F)F)CC1)c1csc([C@@H]2C[C@H]2NCC2CCOCC2)c1 [Example 52, 5-((1R,2R)-2-((tetrahydro-2H-pyran-4-ylmethyl)amino)cyclopropyl)-N-(1-(2,2,2-trifluoroethyl)piperidin-4-yl)thiophene-3-carboxamide hydrochloride] | > 100 | > 100 | < 100
Cc1ncc(NC(=O)c2csc([C@@H]3C[C@H]3NCC3CCOCC3)c2)s1 [Example 53, N-(2-methyl-1,3-thiazol-5-yl)-5-((1R,2R)-2-((tetrahydro-2H-pyran-4-ylmethyl)amino)cyclopropyl)thiophene-3-carboxamide dihydrochloride] | 61 | 96 | < 100
Cc1nn(C)cc1NC(=O)c1csc([C@@H]2C[C@H]2NCC2CCOCC2)c1 [Example 54, N-(1,3-dimethyl-1H-pyrazol-4-yl)-5-((1R,2R)-2-((tetrahydro-2H-pyran-4-ylmethyl)amino)cyclopropyl)thiophene-3-carboxamide dihydrochloride] | > 100 | > 100 | < 100
Cc1c(NC(=O)c2csc([C@@H]3C[C@H]3NCC3CCOCC3)c2)cnn1C [Example 55, N-(1,5-dimethyl-1H-pyrazol-4-yl)-5-((1R,2R)-2-((tetrahydro-2H-pyran-4-ylmethyl)amino)cyclopropyl)thiophene-3-carboxamide dihydrochloride] | > 100 | > 100 | < 100
O=C(NC1CC1)c1csc([C@@H]2C[C@H]2NCC2CCOCC2)c1 [Example 56, N-cyclopropyl-5-((1R,2R)-2-((tetrahydro-2H-pyran-4-ylmethyl)amino)cyclopropyl)thiophene-3-carboxamide hydrochloride] | > 100 | > 100 | < 100
Cc1nnc(NC(=O)c2csc([C@@H]3C[C@H]3NCC3CCN(CCC(=O)O)CC3)c2)s1 [Example 60, 3-(4-((((1R,2R)-2-(4-((5-methyl-1,3,4-thiadiazol-2-yl)carbamoyl)-2-thienyl)cyclopropyl)amino)methyl)piperidin-1-yl)propanoic acid trihydrochloride] | > 100 | > 100 | < 100
Cc1nnc(NC(=O)c2cc([C@H]3C[C@@H]3NCC3CCOCC3)cs2)s1 [Example 74, N-(5-methyl-1,3,4-thiadiazol-2-yl)-4-((1R,2S)-2-((tetrahydro-2H-pyran-4-ylmethyl)amino)cyclopropyl)thiophene-2-carboxamide hydrochloride] | > 100 | > 100 | < 100
O=C(NC1CCC(F)(F)CC1)c1csc([C@@H]2C[C@H]2NC2CCN(C3CC3)CC2)c1 [Example 80, 5-((1R,2R)-2-((1-cyclopropylpiperidin-4-yl)amino)cyclopropyl)-N-(4,4-difluorocyclohexyl)thiophene-3-carboxamide hydrochloride] | > 100 | > 100 | < 100
Cc1cc(NC(=O)c2csc([C@@H]3C[C@H]3NCC3CCOCC3)c2)no1 [Example 81, N-(5-methyl-1,2-oxazol-3-yl)-5-((1R,2R)-2-((tetrahydro-2H-pyran-4-ylmethyl)amino)cyclopropyl)thiophene-3-carboxamide hydrochloride] | 36 | > 100 | < 100
CCn1cc(NC(=O)c2csc([C@@H]3C[C@H]3NCC3CCOCC3)c2)cn1 [Example 86, N-(1-ethyl-1H-pyrazol-4-yl)-5-((1R,2R)-2-((tetrahydro-2H-pyran-4-ylmethyl)amino)cyclopropyl)thiophene-3-carboxamide dihydrochloride] | 87 | > 100 | < 100
CC(=O)N1CCC(N[C@@H]2C[C@H]2c2cc(C(=O)NC3CCC(F)(F)CC3)cs2)CC1 [Example 91, 5-((1R,2R)-2-((1-acetylpiperidin-4-yl)amino)cyclopropyl)-N-(4,4-difluorocyclohexyl)thiophene-3-carboxamide hydrochloride] | > 100 | > 100 | < 100
O=C(NC1CCC(F)(F)CC1)c1csc([C@@H]2C[C@H]2NC2CCN(C(=O)C3CC3)CC2)c1 [Example 92, 5-((1R,2R)-2-((1-(cyclopropylcarbonyl)piperidin-4-yl)amino)cyclopropyl)-N-(4,4-difluorocyclohexyl)thiophene-3-carboxamide hydrochloride] | > 100 | > 100 | < 100
O=C(O)c1ccc(CN2CCC(CN[C@@H]3C[C@H]3c3cc(C(=O)NC4CCC(F)(F)CC4)cs3)CC2)cc1 [Example 101, 4-((4-((((1R,2R)-2-(4-((4,4-difluorocyclohexyl)carbamoyl)-2-thienyl)cyclopropyl)amino)methyl)piperidin-1-yl)methyl)benzoic acid dihydrochloride] | > 100 | > 100 | < 100
O=C(O)c1ccc(CN[C@@H]2C[C@H]2c2cc(C(=O)NC3CCC(F)(F)CC3)cs2)cc1 [Example 110, 4-((((1R,2R)-2-(4-((4,4-difluorocyclohexyl)carbamoyl)-2-thienyl)cyclopropyl)amino)methyl)benzoic acid] | 49 | > 100 | < 100
O=C(NC1CCOCC1)c1csc([C@@H]2C[C@H]2NCC2CCC2)c1 [Example 112, 5-((1R,2R)-2-((cyclobutylmethyl)amino)cyclopropyl)-N-(tetrahydro-2H-pyran-4-yl)thiophene-3-carboxamide] | > 100 | > 100 | < 100
